The source of these data is patent US20200352878A1, “USE OF CANNABINOIDS IN THE TREATMENT OF EPILEPSY” (priority 2018, published 2020).

The nature of data set [1]: Open-label, fixed sequence healthy volunteer drug-drug interaction trial of CBD and stiripentol (steady-state pharmacokinetics, safety). The class given is in vivo, human. The conditions noted are these: healthy volunteers. How it is done:
As part of an open-label, fixed sequence, healthy volunteer trial the primary objective was to investigate the impact of CBD (750 mg twice daily) on the steady-state pharmacokinetics of stiripentol (STP) (750 mg) and the reciprocal effect on CBD, 7-hydroxy-cannabidiol (7-OH-CBD) and 7-carboxy-cannabidiol (7-COOH-CBD).
Analyte plasma concentrations were determined using validated bioanalytical methods. A secondary objective was to evaluate the safety and tolerability of CBD when co-administered with STP.

Data set [2] relates to convulsive seizures in patients with treatment-resistant Dravet syndrome. The data set is described as follows: Clinical trial of adjunctive CBD in treatment-resistant Dravet syndrome; analysis of the interaction with concomitant AEDs. The class given is in vivo, human. The conditions noted are these: for Percentage of patients with greater than 50% reduction in seizures: Dravet syndrome patients aged 2-18 years, convulsive seizures over treatment period vs 4-week baseline, CBD 20 mg/kg/day or placebo added to current AEDs. The protocol: Following completion of a 4-week baseline period, patients were randomized to receive either 20 mg/kg/day CBD (n=61) or placebo (n=59). CBD or placebo were added to their current anti-epileptic treatment which remained stable over the treatment period of the study.
Seizure counts were reported daily via an Interactive Voice Response System. Convulsive seizures were defined as all countable atonic, tonic, clonic, and tonic-clonic seizures. The primary efficacy end point was percent change from baseline in convulsive seizures.
During a 4-week baseline period, patients were required to have at least 4 convulsive seizures (tonic-clonic, clonic, tonic or atonic) while on stable AED therapy. Patients had previously failed a median of 4 prior AEDs and 93% were taking 2 or more concomitant AEDs during the trial. The most commonly used concomitant AEDs (>25% of patients) were clobazam, valproate, stiripentol, levetiracetam, and topiramate.
Following the trial statistical analysis was performed on the various patient groups to determine whether there was an interaction between any of the concomitant AEDs that the patients were taking.
Table 6 below describes the percentage of patients that recorded a 50% reduction in convulsive seizures over the treatment period.

Setting [3] is: CBD 750 mg twice daily, STP 750 mg, plasma.

Take `C=C(C)[C@@H]1CCC(C(=O)O)=C[C@H]1c1c(O)cc(CCCCC)cc1O` [7-COOH-CBD, 7-carboxy-cannabidiol]: the “reduction of exposure by co-administered STP” value in data set [1] (setting [3]) is on record as 13%. The same measure, in the same setting: the same measure for `C=C(C)[C@@H]1CCC(CO)=C[C@H]1c1c(O)cc(CCCCC)cc1O` [7-OH-CBD, 7-hydroxy-cannabidiol]: 29%. Take `C=C(C)[C@@H]1CCC(C)=C[C@H]1c1c(O)cc(CCCCC)cc1O` [CBD, cannabidiol]: in data set [1] (setting [3]), the “effect of co-administration of STP on CBD exposure” value is given as “no effect”. Further, the “most common adverse event (AE)” value in data set [1] (CBD co-administered with STP) was “diarrhoea”. Besides, the “median percent change from baseline in reduction of convulsive seizures, compared with placebo” value in data set [2] (CBD 20 mg/kg/day group (n=61) vs placebo (n=59), p=0.0123) is reported as “statistically superior to placebo”.

Consider `CC(C)(C)C(O)/C=C/c1ccc2c(c1)OCO2` (stereo not shown) [Stiripentol, stiripentol], for which the “Percentage of patients with greater than 50% reduction in seizures” value in data set [2] and in data set [2] (listed as stiripentol) was 14% throughout.
